Consider three molecules from paper PMC11713868, “Cryo-EM Structure of Recombinantly Expressed hUGDH Unveils a Hidden, Alternative Allosteric Inhibitor” (Biochemistry, 2024).

Series [1] addresses T1, Human UDP-glucose dehydrogenase (hUGDH) (Homo sapiens, UniProt O60701).
T1 sequence (O60701 1-494): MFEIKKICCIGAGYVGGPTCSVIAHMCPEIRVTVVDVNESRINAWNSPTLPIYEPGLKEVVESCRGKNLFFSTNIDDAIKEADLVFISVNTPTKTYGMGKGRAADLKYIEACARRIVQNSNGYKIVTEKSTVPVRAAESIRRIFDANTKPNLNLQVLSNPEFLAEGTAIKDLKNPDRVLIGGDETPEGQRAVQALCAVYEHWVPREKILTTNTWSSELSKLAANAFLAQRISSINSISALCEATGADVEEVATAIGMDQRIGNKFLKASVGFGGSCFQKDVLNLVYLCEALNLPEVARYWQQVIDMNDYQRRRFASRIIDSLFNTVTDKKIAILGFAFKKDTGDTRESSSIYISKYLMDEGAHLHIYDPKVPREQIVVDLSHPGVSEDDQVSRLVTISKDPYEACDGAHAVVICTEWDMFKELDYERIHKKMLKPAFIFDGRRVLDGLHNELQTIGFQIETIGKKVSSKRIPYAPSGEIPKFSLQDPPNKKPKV
Put plainly: NADH absorbance ([…] nm) steady-state kinetics, global fit of UDP-Glc saturation curves. Details: gene UGDH; recombinant unliganded hUGDH, His tag removed. It counts as biochemical.

Series [2] concerns the target T1, Human UDP-glucose dehydrogenase (hUGDH). In words: cryo-EM structure ([…] Å) of copurified complex, HPLC/NMR/MS ligand identification; Ki from global fit of competitive inhibition kinetics. It is filed as biochemical. On the set-up: gene UGDH; recombinant hUGDH, N-terminal His tag removed by TEV; hexamer.
Substrate in the series “purified protein”: NC(=O)c1ccc[n+]([C@@H]2O[C@H](COP(=O)([O-])OP(=O)(O)OC[C@H]3O[C@@H](n4cnc5c(N)ncnc54)[C@H](O)[C@@H]3O)[C@@H](O)[C@H]2O)c1
In words: purified protein. It is filed as biochemical, Homo sapiens. Conditions: NAD^+ binding (NB) domain; negative cooperativity; varied: cofactor.

Series [3] concerns the molecule itself. In words: cryo-EM structure; hUGDH:UX4O (copurified UDP-4-keto-xylose bound), 1 mg/mL, 20 mM Hepes pH 7.5, 100 mM NaCl, 1 mM DTT; C2 reconstruction at 2.38 Å, E-omega state.

As usually defined, the Ki is a dissociation constant, usually derived from enzyme kinetics or from competition with a known ligand. On to `O=c1ccn([C@@H]2O[C@H](COP(=O)(O)OP(=O)(O)O[C@H]3OC[C@@H](O)[C@H](O)[C@H]3O)[C@@H](O)[C@H]2O)c(=O)[nH]1` [UDP-Xyl, UDP-xylose], for which the inhibition constant (Ki) in series [1] was found to be 440 ± 20 nM.
For `O=C1CO[C@H](OP(=O)(O)OP(=O)(O)OC[C@H]2O[C@@H](n3ccc(=O)[nH]c3=O)[C@H](O)[C@@H]2O)[C@H](O)[C@H]1O` [UX4O, UDP-4-keto-xylose], the inhibitory constant (Ki) in series [2] came out at 750 ± 60 nM.

B1: Human UDP-glucose dehydrogenase (hUGDH) (enzyme)
chain: MFEIKKICCIGAGYVGGPTCSVIAHMCPEIRVTVVDVNESRINAWNSPTLPIYEPGLKEVVESCRGKNLFFSTNIDDAIKEADLVFISVNTPTKTYGMGKGRAADLKYIEACARRIVQNSNGYKIVTEKSTVPVRAAESIRRIFDANTKPNLNLQVLSNPEFLAEGTAIKDLKNPDRVLIGGDETPEGQRAVQALCAVYEHWVPREKILTTNTWSSELSKLAANAFLAQRISSINSISALCEATGADVEEVATAIGMDQRIGNKFLKASVGFGGSCFQKDVLNLVYLCEALNLPEVARYWQQVIDMNDYQRRRFASRIIDSLFNTVTDKKIAILGFAFKKDTGDTRESSSIYISKYLMDEGAHLHIYDPKVPREQIVVDLSHPGVSEDDQVSRLVTISKDPYEACDGAHAVVICTEWDMFKELDYERIHKKMLKPAFIFDGRRVLDGLHNELQTIGFQIETIGKKVSSKRIPYAPSGEIPKFSLQDPPNKKPKV
notes: UDP-glucose dehydrogenase, human, UniProtKB O60701; also called hUGDH:UX4O (the same protein with copurified UDP-4-keto-xylose); unliganded hUGDH; source: E. coli, purified (TALON column, TEV protease digestion, Superdex 200); not shown: histidine tag, N-terminal, cleaved
The term Km denotes the substrate concentration at which the rate is half of its maximum. Usually stoichiometry N stands for a count of units in the complex or per binding partner. For B1, in “purified protein”, the Michaelis-Menten constant (Km) was found to be 83.4 ± 10.4 µM. Also, in series [3], the “stoichiometry N” value came to 6.
